This note sets out measurements from PubChem BioAssay (NCI).

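Assay format: 96-well plates, 48-hour exposure. GI50 marks 50% less growth. TGI is the concentration that stops growth completely.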

Test systems include PC-3 prostate; HL-60(TB) leukemia; MDA-MB-231 breast; MOLT-4 leukemia; DU-145 prostate; SK-MEL-28 melanoma; ACHN renal; SW-620 colon; SF-295 CNS; OVCAR-8 ovarian.
Common to all, as to assay: growth of human tumour cells (NCI), 48 h

`Clc1cc(Cl)c(OCCCCCCN2CCNCC2)c(Cl)c1`: the GI50 in the assay on PC-3 prostate is 1800 nM; with HL-60(TB) leukemia, 1860 nM; with MDA-MB-231 breast, 2170 nM; in the assay with MOLT-4 leukemia, 2040 nM; with DU-145 prostate it was 4450 nM; in the assay with SK-MEL-28 melanoma, 2330 nM. Besides, the GI50 in the assay with ACHN renal is 2440 nM; with SW-620 colon, 1910 nM; with SF-295 CNS, 1810 nM; with OVCAR-8 ovarian, 3360 nM. For the same molecule, the TGI with PC-3 prostate is 4030 nM; in the assay with HL-60(TB) leukemia, 3820 nM; in the assay on MDA-MB-231 breast, 4530 nM; in the assay on MOLT-4 leukemia it was 4880 nM; in the assay with DU-145 prostate, 15900 nM; with SK-MEL-28 melanoma, 5680 nM. Also, the TGI in the assay on ACHN renal is 6110 nM; in the assay on SW-620 colon it was 3750 nM; in the assay with SF-295 CNS it was 3910 nM; in the assay on OVCAR-8 ovarian, 12400 nM.
Consider `Cc1ccc(C=C2C(Cl)=C(Cl)C(Cl)=C2Cl)cc1`, for which the GI50 with PC-3 prostate was 743 nM; with HL-60(TB) leukemia it was 363 nM; with MDA-MB-231 breast, 1220 nM; in the assay on MOLT-4 leukemia it was 186 nM; in the assay on DU-145 prostate it was 926 nM; in the assay with SK-MEL-28 melanoma, 1250 nM. The GI50 in the assay with ACHN renal is 700 nM; with SW-620 colon it was 339 nM; with SF-295 CNS, 1550 nM; with OVCAR-8 ovarian it was 418 nM. For the same molecule, the TGI in the assay with PC-3 prostate amounted to 6300 nM; in the assay on HL-60(TB) leukemia, 1530 nM; in the assay with MDA-MB-231 breast, 4760 nM; in the assay with MOLT-4 leukemia, 493 nM; with DU-145 prostate it was 3130 nM; in the assay with SK-MEL-28 melanoma, 2640 nM. The TGI is 1940 nM in the assay with ACHN renal, 1180 nM in the assay on SW-620 colon, 3930 nM in the assay with SF-295 CNS and 9450 nM with OVCAR-8 ovarian.
Regarding `COc1ccc(NC2=C(I)C(=O)c3ncccc3C2=O)cc1`, the GI50 was 972 nM in the assay with PC-3 prostate; 1940 nM in the assay with HL-60(TB) leukemia; 2080 nM in the assay on MDA-MB-231 breast; 2060 nM in the assay with MOLT-4 leukemia; 524 nM in the assay with DU-145 prostate; 1660 nM in the assay on SK-MEL-28 melanoma. Also, the GI50 in the assay with ACHN renal was 1810 nM; with SW-620 colon, 1130 nM; in the assay on SF-295 CNS, 1670 nM; in the assay on OVCAR-8 ovarian, 1840 nM. For the same molecule, the TGI in the assay on PC-3 prostate was 7990 nM; in the assay on HL-60(TB) leukemia it was 4340 nM; in the assay on MDA-MB-231 breast it was 7640 nM; with MOLT-4 leukemia, 5790 nM; in the assay with DU-145 prostate, 1870 nM; in the assay with SK-MEL-28 melanoma, 3300 nM. Moreover, the TGI in the assay on ACHN renal is 8530 nM; in the assay with SW-620 colon, 3060 nM; in the assay on SF-295 CNS, 3160 nM; in the assay on OVCAR-8 ovarian it was 5790 nM.
Take `CN(C)CC(=O)Nc1ccc2ncnc(Nc3ccc(Oc4cccc(C(F)(F)F)c4)c(Cl)c3)c2c1`: the GI50 in the assay on PC-3 prostate was 1820 nM; in the assay with HL-60(TB) leukemia it was 2090 nM; in the assay with MDA-MB-231 breast, 1540 nM; in the assay with MOLT-4 leukemia, 2140 nM; with DU-145 prostate, 2130 nM; with SK-MEL-28 melanoma, 1740 nM. Moreover, the GI50 with ACHN renal is 1130 nM; in the assay with SW-620 colon, 1660 nM; with SF-295 CNS it was 2020 nM; with OVCAR-8 ovarian, 3240 nM. For the same molecule, the TGI worked out at 4500 nM in the assay with PC-3 prostate; 4940 nM with HL-60(TB) leukemia; 3290 nM in the assay with MDA-MB-231 breast; 6360 nM in the assay on MOLT-4 leukemia; 6780 nM in the assay on DU-145 prostate; 3220 nM in the assay on SK-MEL-28 melanoma. The TGI in the assay on ACHN renal worked out at 2490 nM; with SW-620 colon, 3300 nM; in the assay with SF-295 CNS, 4280 nM; with OVCAR-8 ovarian, 13100 nM.
With `O=C(C=P(c1ccccc1)(c1ccccc1)c1ccccc1)CCl`, the GI50 with PC-3 prostate is 1540 nM; with HL-60(TB) leukemia, 1310 nM; with MDA-MB-231 breast, 1220 nM; in the assay with MOLT-4 leukemia, 1590 nM; with DU-145 prostate, 1130 nM; in the assay with SK-MEL-28 melanoma, 1540 nM. In addition, the GI50 with ACHN renal was 569 nM; in the assay on SW-620 colon, 579 nM; with SF-295 CNS, 2300 nM; in the assay on OVCAR-8 ovarian, 918 nM. Further, the TGI in the assay on PC-3 prostate was found to be 3340 nM; in the assay on HL-60(TB) leukemia it was 6120 nM; with MDA-MB-231 breast, 3030 nM; in the assay with MOLT-4 leukemia, 6850 nM; with DU-145 prostate, 2380 nM; with SK-MEL-28 melanoma, 3550 nM. Besides, the TGI is 1940 nM with ACHN renal, 2120 nM with SW-620 colon, 7620 nM in the assay with SF-295 CNS and 3800 nM in the assay with OVCAR-8 ovarian.
With `O=C(c1ccccc1Cl)n1oc2ccccc2c1=O`, the TGI in the assay on PC-3 prostate is above 100000 nM; in the assay on HL-60(TB) leukemia it was 51000 nM; in the assay with MDA-MB-231 breast, above 100000 nM; in the assay on MOLT-4 leukemia, 51300 nM; in the assay with DU-145 prostate, above 100000 nM; in the assay with SK-MEL-28 melanoma, above 100000 nM. The TGI with ACHN renal, in the assay with SW-620 colon, in the assay with SF-295 CNS and in the assay on OVCAR-8 ovarian was above 100000 nM throughout.
Regarding `COc1cc(/C=C/c2cc(/C=C/c3ccc(O)c(OC)c3)n(C(=O)Nc3ccccc3Cl)n2)ccc1O`, the GI50 in the assay with PC-3 prostate is 392 nM; in the assay on HL-60(TB) leukemia, 282 nM; in the assay on MDA-MB-231 breast, 708 nM; with MOLT-4 leukemia it was 269 nM; in the assay with DU-145 prostate it was 472 nM; with SK-MEL-28 melanoma, 519 nM. The GI50 in the assay on ACHN renal is 344 nM; in the assay on SW-620 colon, 389 nM; in the assay on SF-295 CNS, 636 nM; with OVCAR-8 ovarian, 378 nM. Besides, the TGI with PC-3 prostate was 2220 nM; with HL-60(TB) leukemia, 721 nM; with MDA-MB-231 breast it was 11400 nM; in the assay with MOLT-4 leukemia, 1200 nM; with DU-145 prostate, 1640 nM; in the assay with SK-MEL-28 melanoma it was 4110 nM. The TGI in the assay on ACHN renal came to 5350 nM; in the assay on SW-620 colon, 1690 nM; in the assay on SF-295 CNS, 3300 nM; in the assay with OVCAR-8 ovarian it was 1600 nM.
